Measurements as given in PMC6151561, “Rapid Identification of Dipeptidyl Peptidase-IV (DPP-IV) Inhibitory Peptides from Ruditapes philippinarum Hydrolysate” (Molecules : A Journal of Synthetic Chemistry and Natural …, 2017).
No end group written: not given here.

Key:
DPP-IV [1] = test system: DPP-IV; parameters: method as in PMID 25577052; conditions: read-out: DPP-IV inhibitory activity IC50; cited from earlier work
porcine DPP-IV = biological target: T1, porcine DPP-IV (Sus scrofa, UniProt P22411); test: DPP-IV inhibitory activity assay (Gly-Pro-p-nitroanilide substrate, absorbance 405 nm); format: biochemical; conditions: chemically synthesized peptides; diprotin A positive control
T1 construct: purchased Sigma Chemical Co. (St. Louis, MO, USA)
Excerpt: Papain (from papaya, 8 × 10^5 units/g of protein), trypsin (from porcine pancreas, 2.5 × 10^5 units/g of protein), pepsin (from porcine gastric mucosa, 1 × 10^4 units/g of protein), flavourzyme (from […], 2 × 10^4 units/g of protein), and alcalase (from Bacillus licheniformis, 2 × 10^5 units/g of protein) were purchased from […] Biological Tech., Ltd. (Nanjing, China). […] (St. Louis, MO, USA). Mass spectrometry (MS)-grade water, acetonitrile (ACN), and trifluoroacetic acid (TFA) were purchased from Tedia Company Inc. (Fairfield, CT, USA). All other reagents were obtained from Sigma. All reagents were of analytical grade. DPP-IV inhibitory activity was measured as previously described by Zhang with minor modifications. Briefly, a 25 μL sample (diluted in 100 mM Tris-HCl buffer at pH 8.0) was mixed with 25 μL Gly-Pro-p-nitroanilide (1.6 mM) and pre-incubated at 37 °C for 10 min. […] The reaction was terminated by adding 100 μL of 1 M sodium acetate buffer at pH 4.0. The absorbance of each reaction was measured at 405 nm. Diprotin A ([…]) was used as a reference inhibitor. The percent DPP-IV inhibition was calculated according to the following equation: […] The DPP-IV inhibitory activity of these chemically synthesized peptides was determined as described in Section 3.3.

DPP-IV enzyme = biological target: T2, DPP-IV enzyme (Sus scrofa, UniProt P22411); test: Lineweaver-Burk double-reciprocal plot, mode of DPP-IV inhibition; format: biochemical, porcine; conditions: Figure 7
T2 construct: purchased Sigma Chemical Co. (St. Louis, MO, USA)
Experimental: Figure 7 Lineweaver—Burk double-reciprocal plot for DPP-IV activity in the absence and presence of four peptides at different inhibitory concentrations. […] (0, 150, and 300 μM); (C) peptide LAPSTM (0, 150, and 300 μM); (D) peptide […] (0, 250, and 500 μM); and (E) peptide FLMESH (0, 400, and 800 μM).
DPP-IV inhibitory activity was measured as previously described by Zhang with minor modifications. Briefly, a 25 μL sample (diluted in 100 mM Tris-HCl buffer at pH 8.0) was mixed with 25 μL Gly-Pro-p-nitroanilide (1.6 mM) and pre-incubated at 37 °C for 10 min. Subsequently, 50 μL of DPP-IV (8 U/L) was added and the mixture was incubated at 37 °C for 1 h. The reaction was terminated by adding 100 μL of 1 M sodium acetate buffer at pH 4.0. The absorbance of each reaction was measured at 405 nm. […] The percent DPP-IV inhibition was calculated according to the following equation: DPP-IV inhibition(%)=[1−Asample/Ablank]×100%

DPP-IV [2] = test system: DPP-IV; parameters: method as in PMID 26758401; conditions: heptapeptide derived from silver carp actin; cited from earlier work

T1 sequence (P22411 whole entry): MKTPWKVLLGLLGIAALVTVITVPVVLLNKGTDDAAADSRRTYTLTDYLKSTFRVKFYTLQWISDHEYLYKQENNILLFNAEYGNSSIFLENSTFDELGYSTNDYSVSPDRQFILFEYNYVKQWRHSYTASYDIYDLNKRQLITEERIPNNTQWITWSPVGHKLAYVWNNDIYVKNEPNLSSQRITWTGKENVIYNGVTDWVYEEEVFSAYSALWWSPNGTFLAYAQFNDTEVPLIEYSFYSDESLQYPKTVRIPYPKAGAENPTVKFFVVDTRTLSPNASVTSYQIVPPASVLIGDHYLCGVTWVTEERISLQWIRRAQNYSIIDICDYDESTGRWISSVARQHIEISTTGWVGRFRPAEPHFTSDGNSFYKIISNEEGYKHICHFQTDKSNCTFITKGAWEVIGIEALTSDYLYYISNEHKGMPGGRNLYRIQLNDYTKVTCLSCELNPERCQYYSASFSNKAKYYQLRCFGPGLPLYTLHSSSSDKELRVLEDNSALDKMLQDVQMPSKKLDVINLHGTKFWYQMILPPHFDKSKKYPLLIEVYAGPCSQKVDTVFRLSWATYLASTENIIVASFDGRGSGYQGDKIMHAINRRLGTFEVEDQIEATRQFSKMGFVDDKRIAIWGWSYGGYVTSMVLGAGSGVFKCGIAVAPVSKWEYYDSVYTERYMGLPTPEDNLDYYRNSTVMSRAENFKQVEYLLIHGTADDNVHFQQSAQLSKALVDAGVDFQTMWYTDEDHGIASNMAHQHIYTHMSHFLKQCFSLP
T2 sequence (P22411 whole entry): as above

Leu-Ala
IC50 (DPP-IV [1]): 91 µM

FAGDDAPRA [FAGDDAPRA]
IC50 (porcine DPP-IV): 393 µM
mode of inhibition of DPP-IV enzyme (DPP-IV enzyme): competitive/non-competitive mixed-type inhibition mode

FLMESH [FLMESH]
IC50 (porcine DPP-IV): > 500 µM
mode of inhibition of DPP-IV enzyme (DPP-IV enzyme): competitive/non-competitive mixed-type inhibition mode

CC[C@H](C)[C@H](N)C(=O)N1CCC[C@H]1C(=O)N[C@H](C(=O)O)[C@@H](C)CC [diprotin A, Ile-Pro-Ile, reference compound]
mode of inhibition of DPP-IV enzyme (DPP-IV enzyme): competitive inhibitor

LAPSTM [LAPSTM]
IC50 (porcine DPP-IV): 141 µM

ALAPSTM [heptapeptide derived from silver carp actin, from the literature]
DPP-IV inhibitory effect (DPP-IV [2]): weak DPP-IV inhibitory effect

FAGDDAPR [FAGDDAPR]
IC50 (porcine DPP-IV): 169 µM
mode of inhibition of DPP-IV enzyme (DPP-IV enzyme): competitive/non-competitive mixed-type inhibition mode
